Data set [1] in a line: Directional permeability of drug analogues across primary BBMEC monolayers (in vitro BBB model). The format is in vitro ADME, bovine. The conditions noted are these: bovine, pH 7.4, donor 10 µM, 0–90 min, mean ± SD, n = 3; for Papp A→B at 10 µM: apical-to-basolateral, read-out: Apparent Permeability Coefficient A → B; for Papp B→A at 10 µM: basolateral-to-apical, read-out: Apparent Permeability Coefficient B → A. As to the method: (§1) The BBMEC were isolated by a modified method previously described. Briefly, the meninges were removed from the gray matter of fresh cow cerebral cortices and mechanically homogenized through a 100 μm mesh screen. Dispase II enzyme (5 mg/ml) reconstituted in MEM isolation media (MEM ([…]), HEPES (50 mM), polymyxin B (50 ug/ml), gentamicin (50 ug/ml) and amphotercin B (2.5 ug/ml) at pH 7.4) was added to the freshly homogenized cerebral cortical tissue (10 mg/g brain tissue) and MEM isolation media at […] was added (equal w/w of brain tissue). The mixture was placed in an incubated shaker for one hour (37°C, 150 rpm). Following this incubation, the supernatant was removed by centrifugation (10 min at 1570 rcf). […] The crude capillary pellet was collected and re-suspended in a collagenase/dispase (5 mg/ml) solution at a final concentration of 0.1% (v/w) and placed in an incubated shaker (37°C, 150 rpm) for one hour. […] The digested capillaries were centrifuged (10 min, 1700 rcf) to remove the enzymatic treatment and re-suspended in isolation media and pipetted into the percoll gradient tubes. The BBMEC cells were then separated by centrifugation (10 min at 1700 rcf). […] The BBMEC were plated (approximately 50,000 cells/cm^2 density) on collagen-coated, fibronectin-treated culture plates, and incubated in a humidified incubator (37°C with 5% (v/v) CO2). The cells were used after reaching confluence, typically 8-12 days. The concentrations of both drugs, Imatinib and INNO-406, were analyzed by a rapid HPLC separation and UV-VIS detection. […] The effluents were monitored at 223 nm and quantified using the area under the peak from standard solutions dissolved in assay II buffer (0.4 to 25 μg/ml). Assay II buffer consisted of sodium chloride (122 mM), potassium chloride (3 mM), calcium chloride (1.4 mM), magnesium sulfate (1.2 mM), sodium bicarbonate (25 mM), HEPES (10 mM), d-glucose (10 mM) and potassium phosphate (0.4 mM) at Ph of 7.4. The directional comparison of drug analogues transported in primary BBMEC monolayers was determined. These methods have been previously described, [21]. Briefly, the freshly isolated BBMEC were plated in triplicates (50,000 cells/cm^2 seeding density) on collagen-coated, fibronectin-treated polycarbonate membrane inserts, and cultured until confluence (12 mm; 0.4 μm pore size, Costar TranswellTM 12-well, Cambridge, MA). Complete culture media from confluent BBMEC monolayers was replaced 24-hours prior to the start of the experiment. The confluent monolayers were mounted in side-by-side diffusion chambers ([…]) either the apical or the basolateral sides were supplied with fresh assay II buffer with drug (donor chamber, 10 μM). Samples (100 μl) were removed from the […] compartment at various time points (0-90 min) and replaced with fresh buffer. The concentration of drug in the samples was determined spectrophotometrically by HPLC methodology reported above ([…]). The directional transport was expressed as the percent of the respective drug across the BBMEC monolayers over time (Mean ± SD, n = 3).

For a further data set, the system named is BBMEC monolayers. Described as above. The format is in vitro ADME, bovine. The conditions noted are these: for Apparent Permeability Ratio A → B/B→ A: mean ± SD, n = 3. How it is done: as §1
The conditions of data set [2]: cited from earlier work.
The nature of data set [3]: Brain levels of INNO-406 in C57 mice after single i.p. injection. The format is in vivo. The conditions noted are these: for Brain level of INNO-406: C57 mice. How it is done:
For pharmacokinetic studies, INNO-406 was injected at 2.5 mg/kg/i.p. or 10 mg/kg/i.p. in C57 mice and brains were harvested 1 h, 4 h, and 24 h after a single injection. In another study, INNO-406 was injected at 2.5 mg/kg/i.p. or 10 mg/kg/i.p. in C57 mice in the presence or absence of MPTP (4×20 mg/kg/i.p. at 2 h interval) after last injection of MPTP and brains were harvested 1 h, 4 h, and 24 h after a single injection of INNO-406. Finally, brain levels of MPP+ in C57 mice were measured 1 h, 4 h, and 24 h after single injection of MPTP (60 mg/kg/i.p.) in the presence or absence of a single injection of INNO-406 (2.5 mg/kg/i.p. or 10 mg/kg/i.p.).
The concentrations of both drugs, Imatinib and INNO-406, were analyzed by a rapid HPLC separation and UV-VIS detection. Briefly, the isocratic HPLC analysis for both Imatinib and INNO-406 were achieved on a C18 Zorbax column (150×4.6 mm, 5 um) (Phenomenex, Torrance, CA) with a simple mobile phase consisting of methanol and deionized water (50∶50% v/v/) at a flow rate of 1.0 ml/min. The effluents were monitored at 223 nm and quantified using the area under the peak from standard solutions dissolved in assay II buffer (0.4 to 25 µg/ml). Assay II buffer consisted of sodium chloride (122 mM), potassium chloride (3 mM), calcium chloride (1.4 mM), magnesium sulfate (1.2 mM), sodium bicarbonate (25 mM), HEPES (10 mM), d-glucose (10 mM) and potassium phosphate (0.4 mM) at Ph of 7.4.

The test system of data set [4] is c-Abl activation, parkin tyrosine phosphorylation, AIMP2 accumulation. The experiment in a line: Immunoprecipitation/immunoblot of striatal lysates of MPTP-treated mice. The format is in vivo, C57BL/6 mice. The conditions noted are these: 10 mg/kg i.p. daily one week before and one week after MPTP; vs MPTP alone.
For data set [5], the system named is MPTP-induced dopaminergic damage in C57BL/6 mice. The experiment in a line: MPTP mouse model of PD: TH+ neuron stereology, striatal TH optical density, striatal dopamine. The format is in vivo.
Another data set relates to Bcr-Abl. The conditions noted are these: preclinical studies; cited from earlier work.
Another data set concerns SH-SY5Y cells. The experiment in a line: Lactate dehydrogenase cytotoxicity assay, MPP+-treated cells. The format is cell-based. The conditions noted are these: 6 h pretreatment with 0.5 or 1.0 µM; MPP+ 500 µM; 24 h after exposure. As to the method:
The release of lactate dehydrogenase for cytotoxicity was measured by LDH assay kit (Roche#11644793001). A 100 µL of the supernatant from treated cells was transferred to new 96-well plates. The plates were incubated for 30 min at room temperature on orbital shaker. A colorimetric absorbance was recorded at 490 nm with a reference wavelength of 650 nm using a micro plate reader for colorimetric detection (BioTek, USA). Each experiment was done in triplicate. Cytotoxicity is expressed in terms of percent relative to the basal lactate dehydrogenase release by untreated control cells where controls cells serve as 100 percent.
Figure 4 INNO-406 prevents dopaminergic depletion and c-Abl mediated parkin phosphorylation in mice striatum. (A) INNO-406 prevents MPTP-induced depletion of striatal dopamine and its metabolites DOPAC and HVA in adult male C57BL/J6 mice. Animals received INNO-406 (10 mg/kg, i.p.) as a single daily injection for 7 days before MPTP injection. […] The optical density quantification data as normalized amounts is presented. * Considered statistically significant from control (p<0.05). ** Considered statistically significant from MPTP (p<0.05). (C) Cytotoxicity plotted as a percentage of control as measured by LDH in SH-SY5Y cells treated with MPP^+ (500 µM). […] Differences among means were analyzed using one-way analysis of variance (ANOVA). […]

[6] abbreviates: INNO-406 10 mg/kg i.p. without MPTP.

The structures appear in SMILES notation.

With `Cc1ccc(NC(=O)c2ccc(CN3CCN(C)CC3)cc2)cc1Nc1nccc(-c2cccnc2)n1` [Imatinib], in data set [1], the Papp A→B at 10 µM was found to be 12.96 ± 0.07 ×10⁻⁶ cm/s and the Papp B→A at 10 µM is 63.86 ± 0.23 ×10⁻⁶ cm/s. In the data set on BBMEC monolayers, the “Apparent Permeability Ratio A → B/B→ A” value is 0.20±0.001. Besides, in data set [2], the Brain bioavailability entry was “limited brain bioavailability” and the “Capacity to cross blood-brain barrier” value was “minimal capacity to cross blood-brain barrier”.
In the case of `Cc1ccc(NC(=O)c2ccc(CN3CC[C@H](N(C)C)C3)c(C(F)(F)F)c2)cc1Nc1nccc(-c2cncnc2)n1` [INNO-406], the “Brain level of INNO-406” value in data set [3] (1 h after single injection of 10 mg/kg i.p.) stood at 50 ng. In addition, in data set [3] (4 h after single injection of 10 mg/kg i.p.), the “Brain level of INNO-406” value is 80 ng. The “Brain level of INNO-406” value in data set [3] (24 h after single injection of 10 mg/kg i.p.) is on record as 65 ng. Moreover, the “Effect of multiple MPTP injections on brain levels of INNO-406” value in data set [3] (MPTP 4×20 mg/kg i.p. at 2 h interval, INNO-406 2.5 or 10 mg/kg i.p., 1, 4, 24 h) was “not altered”. Moreover, in data set [1], the Papp A→B at 10 µM worked out at 98 ± 6.74 ×10⁻⁶ cm/s and the Papp B→A at 10 µM stood at 94.5 ± 10.1 ×10⁻⁶ cm/s. Further, the “Enhancement of apical-to-basolateral transport across BBMEC monolayers compared to Imatinib” value with BBMEC monolayers (apical-to-basolateral, vs Imatinib) is “approximately 7.5 fold”. Moreover, in the data set with BBMEC monolayers, the “Apparent Permeability Ratio A → B/B→ A” value turned out to be 1.00±0.119. Further, in data set [4], the “Striatal level of AIMP2” value is given as “significant decreases”, the “Striatal level of phospho-c-Abl” value is recorded as “significant decreases” and the “Striatal level of phospho-parkin” value is given as “significant decreases”. The “Loss of TH staining intensity in striatum in MPTP mice that also received INNO-406” value in data set [5] (10 mg/kg i.p. daily one week before and after MPTP, relative to controls, MPTP alone 70% loss) is listed as 35%. The “Prevention (decrease) of loss of dopamine (and DOPAC, HVA) in the striatum” value in data set [5] (10 mg/kg i.p. daily one week before and one week after MPTP 4×20 mg/kg i.p. every 2 h) came to 45%. In data set [5] (10 mg/kg i.p. daily one week before and one week after MPTP 4×20 mg/kg, vs saline, MPTP alone 60–65% loss), the “MPTP-induced loss of TH+ neurons in the SNpc in mice also treated with INNO-406” value was 15–20%. Also, in data set [5] (setting [6]), the “Organization and intensity of TH-immunoreactive neurons in SNpc, INNO-406 alone vs saline” value is listed as “essentially similar”; the “TH immunoreactivity within the striatum, INNO-406 alone vs control” value is on record as “similar”. The Entry into brain result in data set [2] was “significantly enter brain”. Also, the “Potency relative to Imatinib in vivo” value in the data set on Bcr-Abl was at least 10 fold. The “MPP+-induced cytotoxicity (LDH release)” value in the data set with SH-SY5Y cells is on record as “prevented”.

The record behind these values is PMC3669292, “Neuroprotective Efficacy of a New Brain-Penetrating C-Abl Inhibitor in a Murine Parkinson’s Disease Model” (PLoS ONE, 2013).
